Reference: patent US20240174662A1, “SMALL MOLECULE INHIBITORS OF SALT INDUCIBLE KINASES” (Janssen Biotech, Inc., priority 2021, published 2024)

Molecular target: SIK2 (Homo sapiens (Human), UniProt Q9H0K1)
Experiment: SIK2 Enzymatic Assay Version 2 (High ATP)
Assay type: biochemical
Conditions: 3 mM ATP and 200 μM HDAC5tide final, ADP-Glo Max luminescence
Outline: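 Luminescent ADP-Glo Max read-out: depletion reagent 2 h, then detection reagent 1 h. Before the reaction, compounds were incubated 30 min with enzyme added at 6 nM (twice final concentration), with all steps at room temperature.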

Sequence of SIK2 (Q9H0K1 whole entry, species assumed): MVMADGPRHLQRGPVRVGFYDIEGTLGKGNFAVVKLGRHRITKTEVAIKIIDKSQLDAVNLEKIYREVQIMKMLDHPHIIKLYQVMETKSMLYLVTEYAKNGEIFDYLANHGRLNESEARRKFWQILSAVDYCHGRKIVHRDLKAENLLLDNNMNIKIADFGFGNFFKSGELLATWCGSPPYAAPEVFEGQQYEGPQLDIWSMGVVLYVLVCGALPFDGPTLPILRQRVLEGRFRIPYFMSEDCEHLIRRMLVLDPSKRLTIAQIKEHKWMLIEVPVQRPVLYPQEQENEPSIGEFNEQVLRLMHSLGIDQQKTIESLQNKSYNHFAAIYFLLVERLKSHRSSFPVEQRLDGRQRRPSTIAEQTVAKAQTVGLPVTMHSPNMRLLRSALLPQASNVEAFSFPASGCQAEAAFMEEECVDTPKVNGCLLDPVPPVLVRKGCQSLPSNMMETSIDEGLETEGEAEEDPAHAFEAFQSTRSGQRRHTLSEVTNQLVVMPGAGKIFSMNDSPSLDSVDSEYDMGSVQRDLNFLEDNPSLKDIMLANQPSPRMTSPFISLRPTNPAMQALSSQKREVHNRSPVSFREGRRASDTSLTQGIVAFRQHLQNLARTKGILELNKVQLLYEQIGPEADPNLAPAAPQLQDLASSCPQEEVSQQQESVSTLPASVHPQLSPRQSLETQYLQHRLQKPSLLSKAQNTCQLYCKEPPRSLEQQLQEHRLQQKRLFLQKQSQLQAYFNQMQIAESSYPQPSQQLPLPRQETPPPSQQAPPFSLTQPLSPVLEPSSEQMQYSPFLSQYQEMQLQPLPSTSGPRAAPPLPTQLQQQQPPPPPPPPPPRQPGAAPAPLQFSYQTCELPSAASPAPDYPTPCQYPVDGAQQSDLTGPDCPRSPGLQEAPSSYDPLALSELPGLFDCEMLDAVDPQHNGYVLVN

SMILES	IC50 [nM]
Cc1cc(C(=O)NCC(C)(C)O)cc(Nc2cc3cc(-c4c(OC[C@H]5CCN5C)cnn4C)ccn3n2)n1 [Example 111, N-(2-hydroxy-2-methyl-propyl)-2-methyl-6-[[5-[2-methyl-4-[[(2R)-1-methylazetidin-2-yl]methoxy]pyrazol-3-yl]pyrazolo[1,5-a]pyridin-2-yl]amino]pyridine-4-carboxamide]	1.3
Cc1cc(Nc2cc3cc(-c4c(OC[C@H]5CCN5C)cnn4C)ccn3n2)nc(C(=O)NCC(C)(C)O)c1 [Example 113, N-(2-hydroxy-2-methyl-propyl)-4-methyl-6-[[5-[2-methyl-4-[[(2R)-1-methylazetidin-2-yl]methoxy]pyrazol-3-yl]pyrazolo[1,5-a]pyridin-2-yl]amino]pyridine-2-carboxamide]	22.3
CN1CC[C@@H]1COc1cnn(C)c1-c1ccn2nc(Nc3ccc4c(n3)CCOC4)cc2c1 [Example 114, N-[5-[2-methyl-4-[[(2R)-1-methylazetidin-2-yl]methoxy]pyrazol-3-yl]pyrazolo[1,5-a]pyridin-2-yl]-7,8-dihydro-5H-pyrano[4,3-b]pyridin-2-amine]	1.1
COCCNC(=O)c1cnc(Nc2cc3cc(-c4c(OC[C@H]5CCN5C)cnn4C)ccn3n2)cn1 [Example 115, N-(2-methoxyethyl)-5-[[5-[2-methyl-4-[[(2R)-1-methylazetidin-2-yl]methoxy]pyrazol-3-yl]pyrazolo[1,5-a]pyridin-2-yl]amino]pyrazine-2-carboxamide]	9
CN1CC[C@@H]1COc1cnn(C)c1-c1ccn2nc(Nc3cnc(C(F)(F)F)cn3)cc2c1 [Example 117, 5-[2-methyl-4-[[(2R)-1-methylazetidin-2-yl]methoxy]pyrazol-3-yl]-N-[5-(trifluoromethyl)pyrazin-2-yl]pyrazolo[1,5-a]pyridin-2-amine]	8.8
CN1CC[C@@H]1COc1cnn(C)c1-c1ccn2nc(Nc3ccnc(C(F)(F)F)n3)cc2c1 [Example 118, 5-[2-methyl-4-[[(2R)-1-methylazetidin-2-yl]methoxy]pyrazol-3-yl]-N-[2-(trifluoromethyl)pyrimidin-4-yl]pyrazolo[1,5-a]pyridin-2-amine]	1.9
COc1nccc(Nc2cc3cc(-c4c(OC[C@H]5CCN5C)cnn4C)ccn3n2)n1 [Example 119, N-(2-methoxypyrimidin-4-yl)-5-[2-methyl-4-[[(2R)-1-methylazetidin-2-yl]methoxy]pyrazol-3-yl]pyrazolo[1,5-a]pyridin-2-amine]	1.6
CN1CC[C@@H]1COc1cnn(C)c1-c1ccn2nc(Nc3cc(C(F)(F)F)ncn3)cc2c1 [Example 123, 5-[2-methyl-4-[[(2R)-1-methylazetidin-2-yl]methoxy]pyrazol-3-yl]-N-[6-(trifluoromethyl)pyrimidin-4-yl]pyrazolo[1,5-a]pyridin-2-amine]	8.4
CN1CC[C@@H]1COc1cnn(C)c1-c1ccn2nc(Nc3ccc4cnccc4n3)cc2c1 [Example 125, N-[5-[2-methyl-4-[[(2R)-1-methylazetidin-2-yl]methoxy]pyrazol-3-yl]pyrazolo[1,5-a]pyridin-2-yl]-1,6-naphthyridin-2-amine]	1.3
CNC(=O)c1ccc(Nc2cc3cc(-c4c(OC[C@H]5CCN5C)cnn4C)ccn3n2)nc1 [Example 126, N-methyl-6-[[5-[2-methyl-4-[[(2R)-1-methylazetidin-2-yl]methoxy]pyrazol-3-yl]pyrazolo[1,5-a]pyridin-2-yl]amino]pyridine-3-carboxamide]	4.1
COc1cc(Nc2cc3cc(-c4c(OC[C@H]5CCN5C)cnn4C)ccn3n2)ncn1 [Example 127, N-(6-methoxypyrimidin-4-yl)-5-[2-methyl-4-[[(2R)-1-methylazetidin-2-yl]methoxy]pyrazol-3-yl]pyrazolo[1,5-a]pyridin-2-amine]	11
CN1CC[C@@H]1COc1cnn(C)c1-c1ccn2nc(Nc3ccnc(NC4CC4)n3)cc2c1 [Example 128, N2-cyclopropyl-N4-[5-[2-methyl-4-[[(2R)-1-methylazetidin-2-yl]methoxy]pyrazol-3-yl]pyrazolo[1,5-a]pyridin-2-yl]pyrimidine-2,4-diamine]	< 0.847

Other lines, results leading:

IC50 [nM]	SMILES
2.7	Cc1cc(C(=O)NC(C)C)cc(Nc2cc3cc(-c4c(OC[C@H]5CCN5C)cnn4C)ccn3n2)n1 [Example 112, N-isopropyl-2-methyl-6-[[5-[2-methyl-4-[[(2R)-1-methylazetidin-2-yl]methoxy]pyrazol-3-yl]pyrazolo[1,5-a]pyridin-2-yl]amino]pyridine-4-carboxamide]
< 0.847	Cc1cc(Nc2cc3cc(-c4c(OC[C@H]5CCN5C)cnn4C)ccn3n2)nc(-c2cccnc2)n1 [Example 116, 5-[2-methyl-4-[[(2R)-1-methylazetidin-2-yl]methoxy]pyrazol-3-yl]-N-[6-methyl-2-(3-pyridyl)pyrimidin-4-yl]pyrazolo[1,5-a]pyridin-2-amine]
23.7	CNC(=O)c1cc(Nc2cc3cc(-c4c(OC[C@H]5CCN5C)cnn4C)ccn3n2)nc(C)n1 [Example 120, N,2-dimethyl-6-[[5-[2-methyl-4-[[(2R)-1-methylazetidin-2-yl]methoxy]pyrazol-3-yl]pyrazolo[1,5-a]pyridin-2-yl]amino]pyrimidine-4-carboxamide]
1	COc1nnc(Nc2cc3cc(-c4c(OC[C@H]5CCN5C)cnn4C)ccn3n2)cc1C [Example 121, N-(6-methoxy-5-methyl-pyridazin-3-yl)-5-[2-methyl-4-[[(2R)-1-methylazetidin-2-yl]methoxy]pyrazol-3-yl]pyrazolo[1,5-a]pyridin-2-amine]
3.6	Cc1nc(Nc2cc3cc(-c4c(OC[C@H]5CCN5C)cnn4C)ccn3n2)cc(C(F)(F)F)n1 [Example 122, 5-[2-methyl-4-[[(2R)-1-methylazetidin-2-yl]methoxy]pyrazol-3-yl]-N-[2-methyl-6-(trifluoromethyl)pyrimidin-4-yl]pyrazolo[1,5-a]pyridin-2-amine]
14.9	CN1CC[C@@H]1COc1cnn(C)c1-c1ccn2nc(Nc3cn(C)nn3)cc2c1 [Example 124, 5-[2-methyl-4-[[(2R)-1-methylazetidin-2-yl]methoxy]pyrazol-3-yl]-N-(1-methyltriazol-4-yl)pyrazolo[1,5-a]pyridin-2-amine]
< 0.847	Cc1cc(Nc2cc3cc(-c4c(OC[C@H]5CCN5C)cnn4C)ccn3n2)nc(NC2CCCC2)n1 [Example 129, N2-cyclopentyl-6-methyl-N4-[5-[2-methyl-4-[[(2R)-1-methylazetidin-2-yl]methoxy]pyrazol-3-yl]pyrazolo[1,5-a]pyridin-2-yl]pyrimidine-2,4-diamine]
< 0.847	CCn1ncc(OC[C@H]2CCN2C)c1-c1ccn2nc(Nc3cc(C)nc(C)n3)cc2c1 [Example 130, N-(2,6-dimethylpyrimidin-4-yl)-5-[2-ethyl-4-[[(2R)-1-methylazetidin-2-yl]methoxy]pyrazol-3-yl]pyrazolo[1,5-a]pyridin-2-amine]
< 0.847	[2H]C([2H])([2H])n1ncc(OC[C@H]2CCN2C)c1-c1ccn2nc(Nc3cc(C)nc(C)n3)cc2c1 [Example 131, N-(2,6-dimethylpyrimidin-4-yl)-5-[4-[[(2R)-1-methylazetidin-2-yl]methoxy]-2-(trideuteriomethyl)pyrazol-3-yl]pyrazolo[1,5-a]pyridin-2-amine]
